Laboratory results from article PMC12847965 (Nature Communications, 2025).

Biological target: T1, E. coli GlpG (Escherichia coli, UniProt P09391)
T1 sequence (P09391 1-276): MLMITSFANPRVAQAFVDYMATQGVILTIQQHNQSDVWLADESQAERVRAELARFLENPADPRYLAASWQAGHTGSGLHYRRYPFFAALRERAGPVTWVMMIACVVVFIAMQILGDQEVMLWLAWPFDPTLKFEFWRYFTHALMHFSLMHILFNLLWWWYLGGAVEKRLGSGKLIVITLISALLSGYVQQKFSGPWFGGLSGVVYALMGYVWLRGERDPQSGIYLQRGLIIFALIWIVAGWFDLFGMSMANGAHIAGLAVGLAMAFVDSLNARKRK
Assay: FRET peptide cleavage assay
Format: biochemical

Cc1ccc(S(=O)(=O)N[C@@H](Cc2ccccc2)C(=O)CCl)cc1 [tosyl phenylalanyl chloromethylketone]
IC50: 296 µM
